# Laboratory results as given in patent US20020035061A1, “COMPOSITIONS AND METHODS FOR TREATING INFECTIONS USING CATIONIC PEPTIDES ALONE OR IN COMBINATION WITH ANTIBIOTICS” (priority 1996, published 2002).
# System: bacterial isolates
# Test: microbe, parasite or virus in culture
# Assay type: cell-based
# Settings: for MBI 26 + Teicoplanin: in combination with Teicoplanin
sequence,measurement,setting,value
KWKSFIKKLTSAAKKVVTTAKPLISS [MBI 26],Peptide MIC Alone,"1. Amikacin, A. baumannii ABI001",8 µg/mL
same,Peptide MIC Alone,"1. Amikacin, A. baumannii ABI003",8 µg/mL
same,Peptide MIC Alone,"1. Amikacin, S. maltophilia SMA021",32 µg/mL
same,Peptide MIC Alone,"1. Amikacin, S. maltophilia SMA037",>128 µg/mL
same,Peptide MIC Alone,"2. Ceftriaxone, A. baumannii ABI002",8 µg/mL
same,Peptide MIC Alone,"2. Ceftriaxone, A. baumannii ABI005",2 µg/mL
same,Peptide MIC Alone,"2. Ceftriaxone, B. cepacia BC003",>128 µg/mL
same,Peptide MIC Alone,"2. Ceftriaxone, E. cloacae ECL014",8 µg/mL
same,Peptide MIC Alone,"2. Ceftriaxone, E. cloacae ECL015",32 µg/mL
same,Peptide MIC Alone,"2. Ceftriaxone, K. pneumoniae KP003",16 µg/mL
same,Peptide MIC Alone,"2. Ceftriaxone, P. aeruginosa PA008",128 µg/mL
same,Peptide MIC Alone,"2. Ceftriaxone, P. aeruginosa PA024",128 µg/mL
same,Peptide MIC Alone,"2. Ceftriaxone, S. aureus SA025 MRSA",1 µg/mL
same,Peptide MIC Alone,"2. Ceftriaxone, S. epidermidis SE007",32 µg/mL
same,Peptide MIC Alone,"2. Ceftriaxone, S. epidermidis SE012",64 µg/mL
same,Peptide MIC Alone,"2. Ceftriaxone, S. maltophilia SMA019",4 µg/mL
same,Peptide MIC Alone,"2. Ceftriaxone, S. maltophilia SMA020",4 µg/mL
same,Peptide MIC Alone,"3. Ciprofloxacin, A. calcoaceticus 1",>64 µg/mL
same,Peptide MIC Alone,"3. Ciprofloxacin, A. calcoaceticus 6",>32 µg/mL
same,Peptide MIC Alone,"3. Ciprofloxacin, E. cloacae 13",>128 µg/mL
same,Peptide MIC Alone,"3. Ciprofloxacin, E. cloacae 15",>32 µg/mL
same,Peptide MIC Alone,"3. Ciprofloxacin, E. cloacae 16",>32 µg/mL
same,Peptide MIC Alone,"3. Ciprofloxacin, P. aeruginosa 23",>32 µg/mL
same,Peptide MIC Alone,"3. Ciprofloxacin, P. aeruginosa 24",>32 µg/mL
same,Peptide MIC Alone,"3. Ciprofloxacin, P. aeruginosa PA41",128 µg/mL
same,Peptide MIC Alone,"3. Ciprofloxacin, P. aeruginosa PA77",128 µg/mL
same,Peptide MIC Alone,"3. Ciprofloxacin, S. aureus SA11",128 µg/mL
same,Peptide MIC Alone,"3. Ciprofloxacin, S. maltophilia 34",>32 µg/mL
same,Peptide MIC Alone,"3. Ciprofloxacin, S. maltophilia 35",>32 µg/mL
same,Peptide MIC Alone,"4. Gentamicin, A. baumannii ABI001",8 µg/mL
same,Peptide MIC Alone,"4. Gentamicin, A. baumannii ABI002",8 µg/mL
same,Peptide MIC Alone,"4. Gentamicin, P. aeruginosa PA041",64 µg/mL
same,Peptide MIC Alone,"4. Gentamicin, S. maltophilia SMA016",>128 µg/mL
same,Peptide MIC Alone,"4. Gentamicin, S. maltophilia SMA017",16 µg/mL
same,Amikacin MIC + Peptide,A. baumannii ABI001,8 µg/mL
same,Gentamicin MIC + Peptide,A. baumannii ABI001,16 µg/mL
same,Peptide MIC + Amikacin,A. baumannii ABI001,2 µg/mL
same,Peptide MIC + Gentamicin,A. baumannii ABI001,2 µg/mL
same,Ceftriaxone MIC + Peptide,A. baumannii ABI002,16 µg/mL
same,Gentamicin MIC + Peptide,A. baumannii ABI002,0.5 µg/mL
same,Peptide MIC + Ceftriaxone,A. baumannii ABI002,2 µg/mL
same,Peptide MIC + Gentamicin,A. baumannii ABI002,4 µg/mL
same,Amikacin MIC + Peptide,A. baumannii ABI003,2 µg/mL
same,Peptide MIC + Amikacin,A. baumannii ABI003,2 µg/mL
same,Ceftriaxone MIC + Peptide,A. baumannii ABI005,8 µg/mL
same,Peptide MIC + Ceftriaxone,A. baumannii ABI005,0.125 µg/mL
same,Ciprofloxacin MIC + Peptide,A. calcoaceticus 1,0.25 µg/mL
same,Peptide MIC + Ciprofloxacin,A. calcoaceticus 1,1 µg/mL
same,Ciprofloxacin MIC + Peptide,A. calcoaceticus 6,0.25 µg/mL
same,Peptide MIC + Ciprofloxacin,A. calcoaceticus 6,16 µg/mL
same,Peptide MIC + Piperacillin,A. calcoaceticus 7,8 µg/mL
same,Piperacillin MIC + Peptide,A. calcoaceticus 7,4 µg/mL
same,Peptide MIC Alone,"A. calcoaceticus 7, Piperacillin section",>32 µg/mL
same,Peptide MIC + Piperacillin,A. calcoaceticus 8,8 µg/mL
same,Piperacillin MIC + Peptide,A. calcoaceticus 8,4 µg/mL
same,Peptide MIC Alone,"A. calcoaceticus 8, Piperacillin section",>32 µg/mL
same,Ceftriaxone MIC + Peptide,B. cepacia BC003,8 µg/mL
same,Peptide MIC + Ceftriaxone,B. cepacia BC003,0.125 µg/mL
same,Ciprofloxacin MIC + Peptide,E. cloacae 13,0.25 µg/mL
same,Peptide MIC + Ciprofloxacin,E. cloacae 13,4 µg/mL
same,Peptide MIC + Piperacillin,E. cloacae 13,8 µg/mL
same,Piperacillin MIC + Peptide,E. cloacae 13,4 µg/mL
same,Peptide MIC Alone,"E. cloacae 13, Piperacillin section",>32 µg/mL
same,Ciprofloxacin MIC + Peptide,E. cloacae 15,0.25 µg/mL
same,Peptide MIC + Ciprofloxacin,E. cloacae 15,8 µg/mL
same,Ciprofloxacin MIC + Peptide,E. cloacae 16,0.25 µg/mL
same,Peptide MIC + Ciprofloxacin,E. cloacae 16,16 µg/mL
same,Ceftriaxone MIC + Peptide,E. cloacae ECL014,32 µg/mL
same,Peptide MIC + Ceftriaxone,E. cloacae ECL014,2 µg/mL
same,Ceftriaxone MIC + Peptide,E. cloacae ECL015,4 µg/mL
same,Peptide MIC + Ceftriaxone,E. cloacae ECL015,4 µg/mL
same,Mupirocin MIC + Peptide,E. coli ECO5,30 µg/mL
same,Peptide MIC + Mupirocin,E. coli ECO5,1 µg/mL
same,Peptide MIC Alone,"E. coli ECO5, Mupirocin section",8 µg/mL
same,Mupirocin MIC + Peptide,E. coli SBECO2,30 µg/mL
same,Peptide MIC + Mupirocin,E. coli SBECO2,1 µg/mL
same,Peptide MIC Alone,"E. coli SBECO2, Mupirocin section",8 µg/mL
same,MBI 26 Alone,E. faecalis 97040 VanB,64 µg/mL
same,MBI 26 + Teicoplanin,E. faecalis 97040 VanB,8 µg/mL
same,MBI 26 Alone,E. faecalis 97041 VanB,64 µg/mL
same,MBI 26 + Teicoplanin,E. faecalis 97041 VanB,8 µg/mL
same,MBI 26 Alone,E. faecalis 97042 VanB,64 µg/mL
same,MBI 26 + Teicoplanin,E. faecalis 97042 VanB,8 µg/mL
same,MBI 26 Alone,E. faecalis 97043 VanB,64 µg/mL
same,MBI 26 + Teicoplanin,E. faecalis 97043 VanB,8 µg/mL
same,Peptide MIC + Vancomycin,E. faecalis EFS005,16 µg/mL
same,Peptide MIC Alone,E. faecalis EFS005,>128 µg/mL
same,Vancomycin MIC + Peptide,E. faecalis EFS005,4 µg/mL
same,Peptide MIC + Vancomycin,E. faecalis EFS012,1 µg/mL
same,Peptide MIC Alone,E. faecalis EFS012,16 µg/mL
same,Vancomycin MIC + Peptide,E. faecalis EFS012,2 µg/mL
same,Peptide MIC + Vancomycin,E. faecalis EFS013,1 µg/mL
same,Peptide MIC Alone,E. faecalis EFS013,16 µg/mL
same,Vancomycin MIC + Peptide,E. faecalis EFS013,2 µg/mL
same,MBI 26 Alone,E. faecium 97001 VanB,64 µg/mL
same,MBI 26 + Teicoplanin,E. faecium 97001 VanB,4 µg/mL
same,MBI 26 Alone,E. faecium 97002 VanB,64 µg/mL
same,MBI 26 + Teicoplanin,E. faecium 97002 VanB,1 µg/mL
same,MBI 26 Alone,E. faecium 97003 VanB,64 µg/mL
same,MBI 26 + Teicoplanin,E. faecium 97003 VanB,1 µg/mL
same,MBI 26 Alone,E. faecium 97005 VanB,64 µg/mL
same,MBI 26 + Teicoplanin,E. faecium 97005 VanB,2 µg/mL
same,MBI 26 Alone,E. faecium 97006 VanB,64 µg/mL
same,MBI 26 + Teicoplanin,E. faecium 97006 VanB,4 µg/mL
same,MBI 26 Alone,E. faecium 97007 VanB,64 µg/mL
same,MBI 26 + Teicoplanin,E. faecium 97007 VanB,1 µg/mL
same,MBI 26 Alone,E. faecium 97008 VanB,64 µg/mL
same,MBI 26 + Teicoplanin,E. faecium 97008 VanB,4 µg/mL
same,MBI 26 Alone,E. faecium 97009 VanB,32 µg/mL
same,MBI 26 + Teicoplanin,E. faecium 97009 VanB,1 µg/mL
same,MBI 26 Alone,E. faecium 97010 VanB,64 µg/mL
same,MBI 26 + Teicoplanin,E. faecium 97010 VanB,4 µg/mL
same,MBI 26 Alone,E. faecium 97011 VanB,64 µg/mL
same,MBI 26 + Teicoplanin,E. faecium 97011 VanB,4 µg/mL
same,MBI 26 Alone,E. faecium 97012 VanB,64 µg/mL
same,MBI 26 + Teicoplanin,E. faecium 97012 VanB,4 µg/mL
same,MBI 26 Alone,E. faecium 97013 VanB,64 µg/mL
same,MBI 26 + Teicoplanin,E. faecium 97013 VanB,8 µg/mL
same,MBI 26 Alone,E. faecium 97014 VanB,64 µg/mL
same,MBI 26 + Teicoplanin,E. faecium 97014 VanB,4 µg/mL
same,MBI 26 Alone,E. faecium 97015 VanB,64 µg/mL
same,MBI 26 + Teicoplanin,E. faecium 97015 VanB,4 µg/mL
same,MBI 26 Alone,E. faecium 97016 VanB,64 µg/mL
same,MBI 26 + Teicoplanin,E. faecium 97016 VanB,4 µg/mL
same,Peptide MIC + Vancomycin,E. faecium EFM010,8 µg/mL
same,Peptide MIC Alone,E. faecium EFM010,32 µg/mL
same,Vancomycin MIC + Peptide,E. faecium EFM010,2 µg/mL
same,Peptide MIC + Vancomycin,E. faecium EFM011,8 µg/mL
same,Peptide MIC Alone,E. faecium EFM011,32 µg/mL
same,Vancomycin MIC + Peptide,E. faecium EFM011,2 µg/mL
same,Peptide MIC + Vancomycin,E. faecium EFM012,16 µg/mL
same,Peptide MIC Alone,E. faecium EFM012,64 µg/mL
same,Vancomycin MIC + Peptide,E. faecium EFM012,2 µg/mL
same,Peptide MIC + Vancomycin,E. faecium EFM014,8 µg/mL
same,Peptide MIC Alone,E. faecium EFM014,32 µg/mL
same,Vancomycin MIC + Peptide,E. faecium EFM014,4 µg/mL
same,Peptide MIC + Vancomycin,E. faecium EFM016,4 µg/mL
same,Peptide MIC Alone,E. faecium EFM016,8 µg/mL
same,Vancomycin MIC + Peptide,E. faecium EFM016,1 µg/mL
same,Peptide MIC + Piperacillin,H. influenzae 1,8 µg/mL
same,Piperacillin MIC + Peptide,H. influenzae 1,32 µg/mL
same,Peptide MIC Alone,"H. influenzae 1, Piperacillin section",>128 µg/mL
same,Peptide MIC + Piperacillin,H. influenzae 2,2 µg/mL
same,Piperacillin MIC + Peptide,H. influenzae 2,64 µg/mL
same,Peptide MIC Alone,"H. influenzae 2, Piperacillin section",>128 µg/mL
same,Ceftriaxone MIC + Peptide,K. pneumoniae KP003,4 µg/mL
same,Peptide MIC + Ceftriaxone,K. pneumoniae KP003,1 µg/mL
same,Peptide MIC + Piperacillin,P. aeruginosa 7,32 µg/mL
same,Piperacillin MIC + Peptide,P. aeruginosa 7,32 µg/mL
same,Peptide MIC Alone,"P. aeruginosa 7, Piperacillin section",>128 µg/mL
same,Ciprofloxacin MIC + Peptide,P. aeruginosa 23,0.5 µg/mL
same,Peptide MIC + Ciprofloxacin,P. aeruginosa 23,2 µg/mL
same,Peptide MIC + Piperacillin,P. aeruginosa 23,32 µg/mL
same,Piperacillin MIC + Peptide,P. aeruginosa 23,4 µg/mL
same,Peptide MIC Alone,"P. aeruginosa 23, Piperacillin section",>64 µg/mL
same,Ciprofloxacin MIC + Peptide,P. aeruginosa 24,0.5 µg/mL
same,Peptide MIC + Ciprofloxacin,P. aeruginosa 24,2 µg/mL
same,Peptide MIC + Piperacillin,P. aeruginosa 28,32 µg/mL
same,Piperacillin MIC + Peptide,P. aeruginosa 28,16 µg/mL
same,Peptide MIC Alone,"P. aeruginosa 28, Piperacillin section",>128 µg/mL
same,Peptide MIC + Piperacillin,P. aeruginosa 41,4 µg/mL
same,Piperacillin MIC + Peptide,P. aeruginosa 41,32 µg/mL
same,Peptide MIC Alone,"P. aeruginosa 41, Piperacillin section",128 µg/mL
same,Mupirocin MIC + Peptide,P. aeruginosa PA2,10 µg/mL
same,Peptide MIC + Mupirocin,P. aeruginosa PA2,64 µg/mL
same,Peptide MIC Alone,"P. aeruginosa PA2, Mupirocin section",128 µg/mL
same,Mupirocin MIC + Peptide,P. aeruginosa PA4,100 µg/mL
same,Peptide MIC + Mupirocin,P. aeruginosa PA4,32 µg/mL
